Data from PubChem BioAssay (NCI).
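A five-concentration, 48-hour dose response in 96-well plates underlies each endpoint, interpolated linearly between surrounding concentrations. Definition used: TGI = concentration required for complete inhibition of growth.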

Experiments:
Assay in all cases: DTP human tumour cell line panel, 48 h
HL-60(TB) leukemia = test system: HL-60(TB) leukemia
U251 CNS = test system: U251 CNS
SNB-78 CNS = test system: SNB-78 CNS
NCI-H226 lung = test system: NCI-H226 lung
HOP-62 NSCLC = test system: HOP-62 NSCLC
SF-539 CNS = test system: SF-539 CNS
A549 NSCLC = test system: A549 NSCLC
786-0 renal = test system: 786-0 renal
SK-OV-3 ovarian = test system: SK-OV-3 ovarian
NCI-H460 lung = test system: NCI-H460 lung
OVCAR-8 ovarian = test system: OVCAR-8 ovarian
OVCAR-5 ovarian = test system: OVCAR-5 ovarian
COLO 205 colon = test system: COLO 205 colon
K-562 leukemia = test system: K-562 leukemia
TK-10 renal = test system: TK-10 renal
SK-MEL-2 melanoma = test system: SK-MEL-2 melanoma
IGROV1 ovarian = test system: IGROV1 ovarian
SF-295 CNS = test system: SF-295 CNS
KM20L2 colon = test system: KM20L2 colon
SF-268 CNS = test system: SF-268 CNS
UACC-62 melanoma = test system: UACC-62 melanoma
OVCAR-4 ovarian = test system: OVCAR-4 ovarian
RPMI-8226 leukemia = test system: RPMI-8226 leukemia
CAKI-1 renal = test system: CAKI-1 renal
SW-620 colon = test system: SW-620 colon
XF 498 CNS = test system: XF 498 CNS
NCI-H522 lung = test system: NCI-H522 lung
UACC-257 melanoma = test system: UACC-257 melanoma
LOX IMVI melanoma = test system: LOX IMVI melanoma
SK-MEL-28 melanoma = test system: SK-MEL-28 melanoma
HT29 colon = test system: HT29 colon
HCT-15 colon = test system: HCT-15 colon
ACHN renal = test system: ACHN renal
HOP-92 NSCLC = test system: HOP-92 NSCLC
MALME-3M melanoma = test system: MALME-3M melanoma
M14 melanoma = test system: M14 melanoma
DLD-1 colon = test system: DLD-1 colon
HCT-116 colon = test system: HCT-116 colon
SNB-75 CNS = test system: SNB-75 CNS
DMS 273 small cell lung = test system: DMS 273 small cell lung
SNB-19 CNS = test system: SNB-19 CNS
KM12 colon = test system: KM12 colon
NCI-H23 lung = test system: NCI-H23 lung
UO-31 renal = test system: UO-31 renal
OVCAR-3 ovarian = test system: OVCAR-3 ovarian
LXFL 529 NSCLC = test system: LXFL 529 NSCLC
RXF-631 renal = test system: RXF-631 renal
SN12C renal = test system: SN12C renal
A498 renal = test system: A498 renal
CCRF-CEM leukemia = test system: CCRF-CEM leukemia
HCC-2998 colon = test system: HCC-2998 colon
RXF 393 renal = test system: RXF 393 renal
EKVX NSCLC = test system: EKVX NSCLC
DMS 114 small cell lung = test system: DMS 114 small cell lung
M19-MEL melanoma = test system: M19-MEL melanoma
MOLT-4 leukemia = test system: MOLT-4 leukemia
SK-MEL-5 melanoma = test system: SK-MEL-5 melanoma
HOP-18 NSCLC = test system: HOP-18 NSCLC

COc1ccc(Nc2nc(C#N)c(N)s2)cc1
TGI (HL-60(TB) leukemia): 89.2 µM | TGI (U251 CNS): > 100 µM | TGI (SNB-78 CNS): > 100 µM | TGI (NCI-H226 lung): > 100 µM | TGI (HOP-62 NSCLC): > 100 µM | TGI (SF-539 CNS): > 100 µM | TGI (A549 NSCLC): > 100 µM | TGI (786-0 renal): > 100 µM | TGI (SK-OV-3 ovarian): > 100 µM | TGI (NCI-H460 lung): > 100 µM | TGI (OVCAR-8 ovarian): > 100 µM | TGI (OVCAR-5 ovarian): > 100 µM | TGI (COLO 205 colon): > 100 µM | TGI (K-562 leukemia): > 100 µM | TGI (TK-10 renal): 89.6 µM | TGI (SK-MEL-2 melanoma): > 100 µM | TGI (IGROV1 ovarian): > 100 µM | TGI (SF-295 CNS): 91.3 µM | TGI (KM20L2 colon): > 100 µM | TGI (SF-268 CNS): > 100 µM | TGI (UACC-62 melanoma): > 100 µM | TGI (OVCAR-4 ovarian): > 100 µM | TGI (RPMI-8226 leukemia): 77.8 µM | TGI (CAKI-1 renal): > 100 µM | TGI (SW-620 colon): > 100 µM | TGI (XF 498 CNS): 64 µM | TGI (NCI-H522 lung): > 100 µM | TGI (UACC-257 melanoma): > 100 µM | TGI (LOX IMVI melanoma): 56.1 µM | TGI (SK-MEL-28 melanoma): > 100 µM | TGI (HT29 colon): > 100 µM | TGI (HCT-15 colon): > 100 µM | TGI (ACHN renal): 60.3 µM | TGI (HOP-92 NSCLC): > 100 µM | TGI (MALME-3M melanoma): > 100 µM | TGI (M14 melanoma): > 100 µM | TGI (DLD-1 colon): > 100 µM | TGI (HCT-116 colon): > 100 µM | TGI (SNB-75 CNS): > 100 µM | TGI (DMS 273 small cell lung): > 100 µM | TGI (SNB-19 CNS): > 100 µM | TGI (KM12 colon): > 100 µM | TGI (NCI-H23 lung): 47.8 µM | TGI (UO-31 renal): > 100 µM | TGI (OVCAR-3 ovarian): > 100 µM | TGI (LXFL 529 NSCLC): > 100 µM | TGI (RXF-631 renal): > 100 µM | TGI (SN12C renal): > 100 µM

CC(O)C(C(=O)O)N(CC1(O)OCC(O)C(O)C1O)N=O (stereo not given)
TGI (HL-60(TB) leukemia): > 100 µM | TGI (U251 CNS): > 100 µM | TGI (SNB-78 CNS): > 100 µM | TGI (HOP-62 NSCLC): > 100 µM | TGI (SF-539 CNS): > 100 µM | TGI (A549 NSCLC): > 100 µM | TGI (786-0 renal): > 100 µM | TGI (SK-OV-3 ovarian): > 100 µM | TGI (NCI-H460 lung): > 100 µM | TGI (OVCAR-8 ovarian): > 100 µM | TGI (OVCAR-5 ovarian): > 100 µM | TGI (COLO 205 colon): > 100 µM | TGI (K-562 leukemia): > 100 µM | TGI (TK-10 renal): > 100 µM | TGI (SK-MEL-2 melanoma): > 100 µM | TGI (IGROV1 ovarian): > 100 µM | TGI (A498 renal): > 100 µM | TGI (KM20L2 colon): > 100 µM | TGI (CCRF-CEM leukemia): > 100 µM | TGI (UACC-62 melanoma): > 100 µM | TGI (HCC-2998 colon): > 100 µM | TGI (RPMI-8226 leukemia): > 100 µM | TGI (SW-620 colon): > 100 µM | TGI (XF 498 CNS): > 100 µM | TGI (NCI-H522 lung): > 100 µM | TGI (UACC-257 melanoma): > 100 µM | TGI (LOX IMVI melanoma): > 100 µM | TGI (SK-MEL-28 melanoma): > 100 µM | TGI (HT29 colon): > 100 µM | TGI (ACHN renal): > 100 µM | TGI (HOP-92 NSCLC): > 100 µM | TGI (RXF 393 renal): > 100 µM | TGI (MALME-3M melanoma): > 100 µM | TGI (EKVX NSCLC): > 100 µM | TGI (M14 melanoma): > 100 µM | TGI (DMS 114 small cell lung): > 100 µM | TGI (DLD-1 colon): > 100 µM | TGI (M19-MEL melanoma): > 100 µM | TGI (HCT-116 colon): > 100 µM | TGI (SNB-75 CNS): > 100 µM | TGI (DMS 273 small cell lung): > 100 µM | TGI (KM12 colon): > 100 µM | TGI (NCI-H23 lung): > 100 µM | TGI (UO-31 renal): > 100 µM | TGI (OVCAR-3 ovarian): > 100 µM | TGI (LXFL 529 NSCLC): > 100 µM | TGI (RXF-631 renal): > 100 µM | TGI (MOLT-4 leukemia): > 100 µM

CC#C[C@@]1(O)CCCCC1O (stereo not given in full)
TGI (HL-60(TB) leukemia): > 100 µM | TGI (U251 CNS): > 100 µM | TGI (SNB-78 CNS): > 100 µM | TGI (NCI-H226 lung): > 100 µM | TGI (HOP-62 NSCLC): > 100 µM | TGI (SF-539 CNS): > 100 µM | TGI (A549 NSCLC): > 100 µM | TGI (786-0 renal): > 100 µM | TGI (SK-OV-3 ovarian): > 100 µM | TGI (NCI-H460 lung): > 100 µM | TGI (OVCAR-8 ovarian): > 100 µM | TGI (COLO 205 colon): > 100 µM | TGI (K-562 leukemia): > 100 µM | TGI (TK-10 renal): > 100 µM | TGI (SK-MEL-2 melanoma): > 100 µM | TGI (IGROV1 ovarian): > 100 µM | TGI (SF-295 CNS): > 100 µM | TGI (A498 renal): > 100 µM | TGI (KM20L2 colon): > 100 µM | TGI (SF-268 CNS): > 100 µM | TGI (CCRF-CEM leukemia): > 100 µM | TGI (UACC-62 melanoma): > 100 µM | TGI (HCC-2998 colon): > 100 µM | TGI (OVCAR-4 ovarian): > 100 µM | TGI (RPMI-8226 leukemia): > 100 µM | TGI (SW-620 colon): > 100 µM | TGI (XF 498 CNS): > 100 µM | TGI (NCI-H522 lung): > 100 µM | TGI (UACC-257 melanoma): > 100 µM | TGI (LOX IMVI melanoma): > 100 µM | TGI (SK-MEL-28 melanoma): > 100 µM | TGI (HT29 colon): > 100 µM | TGI (SK-MEL-5 melanoma): > 100 µM | TGI (HCT-15 colon): > 100 µM | TGI (ACHN renal): > 100 µM | TGI (HOP-92 NSCLC): > 100 µM | TGI (RXF 393 renal): > 100 µM | TGI (MALME-3M melanoma): > 100 µM | TGI (EKVX NSCLC): > 100 µM | TGI (M14 melanoma): > 100 µM | TGI (DMS 114 small cell lung): > 100 µM | TGI (M19-MEL melanoma): > 100 µM | TGI (HCT-116 colon): > 100 µM | TGI (SNB-75 CNS): > 100 µM | TGI (HOP-18 NSCLC): > 100 µM | TGI (DMS 273 small cell lung): > 100 µM | TGI (SNB-19 CNS): > 100 µM | TGI (KM12 colon): > 100 µM | TGI (NCI-H23 lung): > 100 µM | TGI (UO-31 renal): > 100 µM | TGI (OVCAR-3 ovarian): > 100 µM | TGI (RXF-631 renal): > 100 µM | TGI (MOLT-4 leukemia): > 100 µM | TGI (SN12C renal): > 100 µM
